Reference: patent US7884136B2, “Modified-release formulations of a bupropion salt” (Biovail Laboratories International S.R.L., priority 2005, dated 2011)

Experiment: Accelerated stability study of bupropion HBr, closed bottles, 40° C./75% RH, 3 and 6 months, HPLC
Assay type: physicochemical
Details: 40° C., R.H. 75%; for Chromatographic purity B) (HPLC) 4) 2-N-(tert-Butyl)-aminopropiophenone / Chromatographic purity B) (HPLC) 5) single unknown impurity (each): LOQ 0.02%, LOD 0.002%; for Chromatographic purity A) (HPLC) 1) 3′-Chloropropiophenone / Chromatographic purity A) (HPLC) 3) 3′-Chlorobenzoic acid / Chromatographic purity A) (HPLC) 2) 3′-Chloro-2-bromopropiophenone: LOQ 0.05%; for Chromatographic purity A) (HPLC) 1) 3′-Chloropropiophenone / Chromatographic purity A) (HPLC) 3) 3′-Chlorobenzoic acid: LOD 0.01%; for Chromatographic purity A) (HPLC) 2) 3′-Chloro-2-bromopropiophenone: LOD 0.04%

Which results are given for `Br.CC(NC(C)(C)C)C(=O)c1cccc(Cl)c1` (stereo not drawn) [Bupropion•HBr]?
Assay (HPLC) (Batch D00894, 3 month): 99.6 % on d.b.; Chromatographic purity (HPLC: A + B) Total impurities (Batch D00894, 3 month): 0.1%; Chromatographic purity B) (HPLC) 6) total unknown impurities (Batch D00894, 3 month): 6) 0.06%; Description (white or almost white crystalline powder) (Batch D00894, 3 month): conform; Identification IR, HPLC (Batch D00894, 3 month): positive; Water content (K.F.) (Batch D00894, 3 month): 0.07%; Chromatographic purity B) (HPLC) 4) 2-N-(tert-Butyl)-aminopropiophenone (Batch D00894, 3 month): 4) 0.03%; Chromatographic purity B) (HPLC) 5) single unknown impurity (each) (Batch D00894, 3 month): 5) 0.04%; Chromatographic purity A) (HPLC) 1) 3′-Chloropropiophenone (Batch D00894, 3 month): 1) n.q.; Chromatographic purity A) (HPLC) 3) 3′-Chlorobenzoic acid (Batch D00894, 3 month): 3) n.q.; Chromatographic purity A) (HPLC) 2) 3′-Chloro-2-bromopropiophenone (Batch D00894, 3 month): 2) n.d.; Assay (HPLC) (Batch D00894, 6 months): 99.7 % on d.b.; Chromatographic purity (HPLC: A + B) Total impurities (Batch D00894, 6 months): 0.1%; Chromatographic purity B) (HPLC) 6) total unknown impurities (Batch D00894, 6 months): 6) 0.02%; Description (white or almost white crystalline powder) (Batch D00894, 6 months): conform; Identification IR, HPLC (Batch D00894, 6 months): positive; Water content (K.F.) (Batch D00894, 6 months): 0.08%; Chromatographic purity B) (HPLC) 4) 2-N-(tert-Butyl)-aminopropiophenone (Batch D00894, 6 months): 4) 0.04%; Chromatographic purity B) (HPLC) 5) single unknown impurity (each) (Batch D00894, 6 months): 5) n.q.; Chromatographic purity A) (HPLC) 1) 3′-Chloropropiophenone (Batch D00894, 6 months): 1) 0.05%; Chromatographic purity A) (HPLC) 3) 3′-Chlorobenzoic acid (Batch D00894, 6 months): 3) n.q.; Chromatographic purity A) (HPLC) 2) 3′-Chloro-2-bromopropiophenone (Batch D00894, 6 months): 2) n.d.; Assay (HPLC) (Batch D00894, time 0): 99.6 % on d.b.; Chromatographic purity (HPLC: A + B) Total impurities (Batch D00894, time 0): 0.1%; Chromatographic purity B) (HPLC) 6) total unknown impurities (Batch D00894, time 0): 6) 0.04%; Description (white or almost white crystalline powder) (Batch D00894, time 0): conform; Identification IR, HPLC (Batch D00894, time 0): positive; Water content (K.F.) (Batch D00894, time 0): 0.05%; Chromatographic purity B) (HPLC) 4) 2-N-(tert-Butyl)-aminopropiophenone (Batch D00894, time 0): 4) 0.04%; Chromatographic purity B) (HPLC) 5) single unknown impurity (each) (Batch D00894, time 0): 5) 0.04%; Chromatographic purity A) (HPLC) 1) 3′-Chloropropiophenone (Batch D00894, time 0): 1) n.d.; Chromatographic purity A) (HPLC) 3) 3′-Chlorobenzoic acid (Batch D00894, time 0): 3) n.q.; Chromatographic purity A) (HPLC) 2) 3′-Chloro-2-bromopropiophenone (Batch D00894, time 0): 2) n.d.; Assay (HPLC) (Batch D00895, 3 month): 100.7 % on d.b.; Chromatographic purity (HPLC: A + B) Total impurities (Batch D00895, 3 month): 0.1%; Chromatographic purity B) (HPLC) 6) total unknown impurities (Batch D00895, 3 month): 6) 0.05%; Description (white or almost white crystalline powder) (Batch D00895, 3 month): conform; Identification IR, HPLC (Batch D00895, 3 month): positive; Water content (K.F.) (Batch D00895, 3 month): 0.07%; Chromatographic purity B) (HPLC) 4) 2-N-(tert-Butyl)-aminopropiophenone (Batch D00895, 3 month): 4) 0.03%; Chromatographic purity B) (HPLC) 5) single unknown impurity (each) (Batch D00895, 3 month): 5) 0.04%; Chromatographic purity A) (HPLC) 1) 3′-Chloropropiophenone (Batch D00895, 3 month): 1) n.q.; Chromatographic purity A) (HPLC) 3) 3′-Chlorobenzoic acid (Batch D00895, 3 month): 3) 0.05%; Chromatographic purity A) (HPLC) 2) 3′-Chloro-2-bromopropiophenone (Batch D00895, 3 month): 2) n.d.; Assay (HPLC) (Batch D00895, 6 months): 99.7 % on d.b.; Chromatographic purity (HPLC: A + B) Total impurities (Batch D00895, 6 months): 0.1%; Chromatographic purity B) (HPLC) 6) total unknown impurities (Batch D00895, 6 months): 6) 0.02%; Description (white or almost white crystalline powder) (Batch D00895, 6 months): conform; Identification IR, HPLC (Batch D00895, 6 months): positive; Water content (K.F.) (Batch D00895, 6 months): 0.07%; Chromatographic purity B) (HPLC) 4) 2-N-(tert-Butyl)-aminopropiophenone (Batch D00895, 6 months): 4) 0.04%; Chromatographic purity B) (HPLC) 5) single unknown impurity (each) (Batch D00895, 6 months): 5) n.q.; Chromatographic purity A) (HPLC) 1) 3′-Chloropropiophenone (Batch D00895, 6 months): 1) 0.05%; Chromatographic purity A) (HPLC) 3) 3′-Chlorobenzoic acid (Batch D00895, 6 months): 3) n.q.; Chromatographic purity A) (HPLC) 2) 3′-Chloro-2-bromopropiophenone (Batch D00895, 6 months): 2) n.d.; Assay (HPLC) (Batch D00895, time 0): 99.2 % on d.b.; Chromatographic purity (HPLC: A + B) Total impurities (Batch D00895, time 0): 0.1%; Chromatographic purity B) (HPLC) 6) total unknown impurities (Batch D00895, time 0): 6) 0.04%; Description (white or almost white crystalline powder) (Batch D00895, time 0): conform; Identification IR, HPLC (Batch D00895, time 0): positive; Water content (K.F.) (Batch D00895, time 0): 0.04%; Chromatographic purity B) (HPLC) 4) 2-N-(tert-Butyl)-aminopropiophenone (Batch D00895, time 0): 4) 0.04%; Chromatographic purity B) (HPLC) 5) single unknown impurity (each) (Batch D00895, time 0): 5) 0.04%; Chromatographic purity A) (HPLC) 1) 3′-Chloropropiophenone (Batch D00895, time 0): 1) n.d.; Chromatographic purity A) (HPLC) 3) 3′-Chlorobenzoic acid (Batch D00895, time 0): 3) n.q.; Chromatographic purity A) (HPLC) 2) 3′-Chloro-2-bromopropiophenone (Batch D00895, time 0): 2) n.d.
